Measurements reported in the NIST ThermoML archive (doi:10.1007/s10765-008-0535-5).
± gives the expanded uncertainty stated by the source.

Test: molar heat capacity at constant volume; wn = mass fraction of the nth substance listed
Conditions: Liquid, Vacuum adiabatic calorimetry, w2 = 0.5111

FC(F)C(F)(F)F [pentafluoroethane] + FCF
Conditions	molar heat capacity at constant volume [J/K/mol]
268.15 K, 3423 kPa	62.96 ± 2
269.15 K, 4259 kPa	64.11 ± 2.1
270.15 K, 5065 kPa	63.82 ± 2.1
270.15 K, 5095 kPa	63.25 ± 2
270.15 K, 5157 kPa	63.82 ± 2.1
271.15 K, 5903 kPa	64.9 ± 2.1
271.15 K, 5931 kPa	64.04 ± 2.1
271.15 K, 5992 kPa	62.96 ± 2
272.15 K, 6740 kPa	64.18 ± 2.1
272.15 K, 6767 kPa	64.61 ± 2.1
272.15 K, 6828 kPa	63.25 ± 2
273.15 K, 7576 kPa	64.54 ± 2.1
273.15 K, 7602 kPa	63.82 ± 2.1
273.15 K, 7662 kPa	64.04 ± 2.1
274.15 K, 8411 kPa	65.12 ± 2.1
274.15 K, 8437 kPa	65.19 ± 2.1
274.15 K, 8496 kPa	63.82 ± 2.1
275.15 K, 9245 kPa	64.9 ± 2.1
275.15 K, 9272 kPa	64.9 ± 2.1
275.15 K, 9328 kPa	63.75 ± 2.1
276.15 K, 10082 kPa	65.77 ± 2.1
276.15 K, 10107 kPa	64.83 ± 2.1
276.15 K, 10161 kPa	64.25 ± 2.1
277.15 K, 10917 kPa	65.84 ± 2.1
277.15 K, 10942 kPa	65.62 ± 2.1
277.15 K, 10993 kPa	65.05 ± 2.1
278.15 K, 11753 kPa	66.05 ± 2.2
278.15 K, 11776 kPa	65.55 ± 2.1
278.15 K, 11824 kPa	64.4 ± 2.1
279.15 K, 12587 kPa	65.69 ± 2.1
279.15 K, 12611 kPa	66.12 ± 2.2
279.15 K, 12657 kPa	65.33 ± 2.1
280.15 K, 13423 kPa	66.92 ± 2.2
280.15 K, 13444 kPa	65.12 ± 2.1
280.15 K, 13488 kPa	64.9 ± 2.1
281.15 K, 14258 kPa	65.69 ± 2.1
281.15 K, 14277 kPa	66.63 ± 2.2
281.15 K, 14319 kPa	65.69 ± 2.1
282.15 K, 15091 kPa	66.92 ± 2.2
282.15 K, 15110 kPa	66.27 ± 2.2
282.15 K, 15148 kPa	65.55 ± 2.1
283.15 K, 15926 kPa	66.63 ± 2.2
283.15 K, 15943 kPa	66.05 ± 2.2
283.15 K, 15978 kPa	64.76 ± 2.1
284.15 K, 16759 kPa	66.56 ± 2.2
284.15 K, 16775 kPa	66.34 ± 2.2
284.15 K, 16808 kPa	66.05 ± 2.2
285.15 K, 17592 kPa	67.2 ± 2.2
285.15 K, 17606 kPa	67.06 ± 2.2
285.15 K, 17637 kPa	65.77 ± 2.2
286.15 K, 18423 kPa	66.77 ± 2.2
286.15 K, 18437 kPa	66.7 ± 2.2
286.15 K, 18467 kPa	66.41 ± 2.2
287.15 K, 19253 kPa	66.2 ± 2.2
287.15 K, 19268 kPa	66.7 ± 2.2
287.15 K, 19297 kPa	65.19 ± 2.1
288.15 K, 20083 kPa	67.35 ± 2.2
288.15 K, 20097 kPa	67.28 ± 2.2
288.15 K, 20124 kPa	66.05 ± 2.2
289.15 K, 20914 kPa	67.35 ± 2.2
289.15 K, 20926 kPa	66.7 ± 2.2
289.15 K, 20951 kPa	66.27 ± 2.2
290.15 K, 21743 kPa	67.49 ± 2.2
290.15 K, 21755 kPa	67.28 ± 2.2
290.15 K, 21778 kPa	66.12 ± 2.2
291.15 K, 22571 kPa	67.28 ± 2.2
291.15 K, 22583 kPa	66.7 ± 2.2
291.15 K, 22607 kPa	66.05 ± 2.2
292.15 K, 23400 kPa	67.35 ± 2.2
292.15 K, 23410 kPa	67.35 ± 2.2
292.15 K, 23433 kPa	66.63 ± 2.2
293.15 K, 24226 kPa	67.13 ± 2.2
293.15 K, 24236 kPa	67.06 ± 2.2
293.15 K, 24257 kPa	66.2 ± 2.2
294.15 K, 25053 kPa	67.42 ± 2.2
294.15 K, 25062 kPa	67.42 ± 2.2
294.15 K, 25082 kPa	67.28 ± 2.2
295.15 K, 25878 kPa	66.84 ± 2.2
295.15 K, 25887 kPa	67.13 ± 2.2
295.15 K, 25903 kPa	65.05 ± 2.1
296.15 K, 5585 kPa	69.44 ± 2.2
296.15 K, 5620 kPa	68.57 ± 2.2
296.15 K, 5667 kPa	65.84 ± 2.2
296.15 K, 26704 kPa	67.92 ± 2.2
296.15 K, 26711 kPa	66.99 ± 2.2
296.15 K, 26725 kPa	66.48 ± 2.2
297.15 K, 6213 kPa	68.72 ± 2.2
297.15 K, 6246 kPa	68.86 ± 2.2
297.15 K, 6292 kPa	68.14 ± 2.2
297.15 K, 27528 kPa	67.28 ± 2.2
297.15 K, 27534 kPa	66.63 ± 2.2
297.15 K, 27546 kPa	66.2 ± 2.2
298.15 K, 6841 kPa	70.08 ± 2.2
298.15 K, 6872 kPa	68.28 ± 2.2
298.15 K, 6917 kPa	67.78 ± 2.2
298.15 K, 28352 kPa	66.99 ± 2.2
298.15 K, 28357 kPa	66.84 ± 2.2
298.15 K, 28366 kPa	65.48 ± 2.1
299.15 K, 7469 kPa	69.08 ± 2.2
299.15 K, 7499 kPa	69.29 ± 2.2
299.15 K, 7541 kPa	67.28 ± 2.2
299.15 K, 29176 kPa	67.56 ± 2.2
299.15 K, 29179 kPa	67.49 ± 2.2
299.15 K, 29186 kPa	66.05 ± 2.1
300.15 K, 8097 kPa	69.15 ± 2.2
300.15 K, 8124 kPa	67.85 ± 2.2
300.15 K, 8166 kPa	68.07 ± 2.2
300.15 K, 29998 kPa	66.56 ± 2.2
300.15 K, 29999 kPa	65.55 ± 2.1
300.15 K, 30003 kPa	66.7 ± 2.2
301.15 K, 8725 kPa	68.57 ± 2.2
301.15 K, 8750 kPa	68.07 ± 2.2
301.15 K, 8791 kPa	67.92 ± 2.2
302.15 K, 9353 kPa	68.14 ± 2.2
302.15 K, 9377 kPa	68.86 ± 2.2
302.15 K, 9417 kPa	66.99 ± 2.2
303.15 K, 9980 kPa	68.57 ± 2.2
303.15 K, 10003 kPa	68.28 ± 2.2
303.15 K, 10042 kPa	67.2 ± 2.2
304.15 K, 10607 kPa	68.72 ± 2.2
304.15 K, 10629 kPa	66.92 ± 2.2
304.15 K, 10667 kPa	67.49 ± 2.2
305.15 K, 11234 kPa	66.92 ± 2.2
305.15 K, 11256 kPa	67.42 ± 2.2
305.15 K, 11292 kPa	66.05 ± 2.2
306.15 K, 11861 kPa	68.14 ± 2.2
306.15 K, 11881 kPa	66.99 ± 2.2
306.15 K, 11917 kPa	66.2 ± 2.2
307.15 K, 12487 kPa	66.77 ± 2.2
307.15 K, 12507 kPa	67.28 ± 2.2
307.15 K, 12541 kPa	66.92 ± 2.2
308.15 K, 13114 kPa	67.06 ± 2.2
308.15 K, 13133 kPa	67.35 ± 2.2
308.15 K, 13165 kPa	65.84 ± 2.2
309.15 K, 13740 kPa	66.92 ± 2.2
309.15 K, 13758 kPa	67.13 ± 2.2
309.15 K, 13790 kPa	66.12 ± 2.2
310.15 K, 14367 kPa	67.13 ± 2.2
310.15 K, 14384 kPa	66.05 ± 2.2
310.15 K, 14414 kPa	65.91 ± 2.2
311.15 K, 14992 kPa	66.48 ± 2.2
311.15 K, 15009 kPa	66.2 ± 2.2
311.15 K, 15038 kPa	65.84 ± 2.1
312.15 K, 15618 kPa	64.9 ± 2.1
312.15 K, 15634 kPa	67.13 ± 2.2
312.15 K, 15662 kPa	65.26 ± 2.1
313.15 K, 16243 kPa	66.7 ± 2.2
313.15 K, 16259 kPa	66.2 ± 2.2
313.15 K, 16286 kPa	65.26 ± 2.1
314.15 K, 16869 kPa	66.2 ± 2.2
314.15 K, 16883 kPa	65.98 ± 2.2
314.15 K, 16910 kPa	65.26 ± 2.1
315.15 K, 17493 kPa	65.77 ± 2.2
315.15 K, 17507 kPa	65.84 ± 2.2
315.15 K, 17534 kPa	64.54 ± 2.1
316.15 K, 18118 kPa	65.77 ± 2.1
316.15 K, 18131 kPa	65.12 ± 2.1
316.15 K, 18158 kPa	64.9 ± 2.1
317.15 K, 18743 kPa	65.48 ± 2.1
317.15 K, 18755 kPa	64.33 ± 2.1
317.15 K, 18781 kPa	64.47 ± 2.1
318.15 K, 19367 kPa	64.97 ± 2.1
318.15 K, 19379 kPa	64.9 ± 2.1
318.15 K, 19404 kPa	64.25 ± 2.1
319.15 K, 19990 kPa	65.05 ± 2.1
319.15 K, 20003 kPa	65.12 ± 2.1
319.15 K, 20027 kPa	64.61 ± 2.1
320.15 K, 20613 kPa	63.75 ± 2.1
320.15 K, 20627 kPa	65.77 ± 2.1
320.15 K, 20649 kPa	64.33 ± 2.1
321.15 K, 21236 kPa	64.69 ± 2.1
321.15 K, 21250 kPa	64.69 ± 2.1
321.15 K, 21272 kPa	63.61 ± 2.1
322.15 K, 21858 kPa	64.69 ± 2.1
322.15 K, 21873 kPa	63.9 ± 2.1
322.15 K, 21894 kPa	64.04 ± 2.1
323.15 K, 22480 kPa	63.9 ± 2.1
323.15 K, 22495 kPa	63.9 ± 2.1
323.15 K, 22516 kPa	63.61 ± 2
324.15 K, 23103 kPa	64.33 ± 2.1
324.15 K, 23117 kPa	64.97 ± 2.1
324.15 K, 23137 kPa	62.6 ± 2.1
325.15 K, 23725 kPa	64.25 ± 2.1
325.15 K, 23738 kPa	63.39 ± 2
325.15 K, 23758 kPa	63.1 ± 2
326.15 K, 24347 kPa	64.33 ± 2.1
326.15 K, 24361 kPa	64.9 ± 2.1
326.15 K, 24379 kPa	62.74 ± 2.1
327.15 K, 24970 kPa	63.75 ± 2
327.15 K, 24981 kPa	63.1 ± 2
327.15 K, 25000 kPa	63.68 ± 2
328.15 K, 25590 kPa	62.96 ± 2
328.15 K, 25601 kPa	63.1 ± 2
328.15 K, 25620 kPa	62.17 ± 2
